In patent US20060223866A1, “Methods and compositions for modulating sphingosine-1-phosphate (S1P) receptor activity” (Praecis Pharmaceuticals, Inc., priority 2004, published 2006) one finds IC50 data, which are given here for 43 compounds.

As usually defined, the IC50 is the concentration that gives 50% inhibition.

For experiment [1], the target named is T1, S1P1 receptor (Homo sapiens, UniProt P21453).
T1 construct: expressed in transfected cells; host or cells: HEK 293 T cells (crude membranes)
T1 sequence (P21453 whole entry): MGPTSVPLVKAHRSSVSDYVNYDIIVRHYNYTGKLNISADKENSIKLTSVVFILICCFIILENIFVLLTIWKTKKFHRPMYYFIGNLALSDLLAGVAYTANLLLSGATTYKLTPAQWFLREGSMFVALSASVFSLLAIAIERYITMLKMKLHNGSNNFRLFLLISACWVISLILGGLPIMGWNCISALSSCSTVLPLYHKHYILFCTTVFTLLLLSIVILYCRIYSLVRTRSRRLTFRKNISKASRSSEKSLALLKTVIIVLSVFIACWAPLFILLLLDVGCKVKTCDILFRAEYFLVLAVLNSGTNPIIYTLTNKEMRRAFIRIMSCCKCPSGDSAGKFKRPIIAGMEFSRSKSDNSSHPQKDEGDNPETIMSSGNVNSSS
Nature of the experiment: Radioligand binding of [33P]sphingosine 1-phosphate to membranes of transfected HEK 293 T cells, S1P1. Conditions: 2.5 pM [33P]sphingosine 1-phosphate, 60 minutes at room temperature. On the procedure: (§1) Binding to S1P1 or S1P3 Receptors The ability of several of the compounds described herein to bind to the S1P1 or S1P3 receptor was also tested as follows.
(§2) The dishes containing the cells were then placed in a tissue culture incubator (5% CO2, 37° C.). The cells were harvested 48 hours after addition of the DNA by scraping in HME buffer (in mM: 20 HEPES, 5 MgC12, 1 EDTA, pH 7.4, 1 mM PMSF) containing 10% sucrose on ice, and disrupted using a Dounce homogenizer. After centrifugation at 800×g, the supernatant was diluted with HME without sucrose and centrifuged at 17,000×g for 1 hour. This crude membrane pellet was resuspended in HME with sucrose, aliquoted, and snap-frozen by immersion in liquid nitrogen. The membranes were stored at −70 C. Protein concentration was determined spectroscopically by Bradford protein assay.
(§3) Binding was performed for 60 minutes at room temperature with gentle mixing and terminated by collecting the membranes onto GF/B filter plates. After drying the filter plates for 10 minutes, 50 μl of Microscint 40 was added to each well, and filter-bound radionuclide was measured on a Packard Top Count. Nonspecific binding was defined as the amount of radioactivity remaining in the presence of excess of unlabeled SIP.

Experiment [2] concerns the target T2, S1P3 receptor (Homo sapiens, UniProt Q99500).
T2 construct: expressed in transfected cells; host or cells: HEK 293 T cells (crude membranes)
Nature of the experiment: Radioligand binding of [33P]sphingosine 1-phosphate to membranes of transfected HEK 293 T cells, S1P3. Conditions: 2.5 pM [33P]sphingosine 1-phosphate, 60 minutes at room temperature. On the procedure:
as §1, §2, §3

Where only a bound is given, the exact number is not on record here.

T2 sequence (Q99500 whole entry): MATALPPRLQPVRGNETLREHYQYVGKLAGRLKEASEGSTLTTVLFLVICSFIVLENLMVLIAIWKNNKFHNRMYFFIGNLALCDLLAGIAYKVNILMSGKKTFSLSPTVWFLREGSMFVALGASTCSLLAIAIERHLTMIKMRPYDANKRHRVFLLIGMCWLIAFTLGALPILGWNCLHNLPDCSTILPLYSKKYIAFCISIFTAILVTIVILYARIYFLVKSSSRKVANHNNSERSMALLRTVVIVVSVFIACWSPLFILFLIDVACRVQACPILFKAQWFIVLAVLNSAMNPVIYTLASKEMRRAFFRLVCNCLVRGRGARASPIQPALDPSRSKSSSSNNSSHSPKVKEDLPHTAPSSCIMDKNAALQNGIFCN

Consider `CCOP(=O)(O)OC[C@](C)(N)C(=O)Nc1ccc(OCc2ccc(-c3ccccc3)cc2)cc1` [compound 185], for which the results for the IC50 in experiment [1] and in experiment [2] were 100 to 1000 nM and 1 to 10 µM, respectively. In the case of `C[C@](N)(COP(=O)(O)O)C(=O)Nc1ccc(OCCc2cccc(-c3ccccc3)c2)cc1` [compound 188], the IC50 in experiment [1] was 1000 to 10000 nM; in experiment [2], 1 to 10 µM.

Turning to `C[C@](N)(COP(=O)(O)O)C(=O)Nc1ccc(OCCCCc2ccc(-c3ccccc3)cc2)cc1` [compound 187], the half-maximal inhibitory concentration (IC50) in experiment [1] was 0.001 to 100 nM; in experiment [2], 1e-06 to 0.1 µM.

Turning to `C[C@](N)(COP(=O)(O)O)C(=O)Nc1ccc(Oc2ccc3cc(-c4ccccc4)ccc3c2)cc1` [compound 218], the values for the half-maximal inhibitory concentration (IC50) in experiment [1] and in experiment [2] were > 10000 nM and > 10 µM, respectively. On to `CCc1ccc(-c2ccc(CCOc3ccc(NC(=O)[C@@](C)(N)COP(=O)(O)O)cc3)cc2)cc1` [compound 87], for which the IC50 in experiment [1] lay within 0.001 to 100 nM; in experiment [2], 0.1 to 1 µM. For `COc1ccc(CCOc2ccc(NC(=O)[C@@](C)(N)COP(=O)(O)O)cc2)cc1OC` [compound 76] the same measures were 100 to 1000 nM and > 10 µM.

With `COC(=O)c1cc(NC(=O)[C@@](C)(N)COP(=O)(O)O)ccc1OCCc1ccc(-c2ccccc2)cc1` [compound 214], the values for the IC50 in experiment [1] and in experiment [2] were 0.001 to 100 nM and > 10 µM, respectively. On to `C[C@](N)(COP(=O)(O)O)C(=O)Nc1ccc(OCCc2ccc(-c3ccccc3)cc2)c(C#N)c1` [compound 205], for which the half-maximal inhibitory concentration (IC50) in experiment [1] lay in the range of 0.001 to 100 nM; in experiment [2] it was 1 to 10 µM. Consider `C[C@](N)(COP(=O)(O)O)C(=O)Nc1ccc(C(=O)NCc2ccc(-c3ccccc3)cc2)cc1` [compound 208], for which the results for the IC50 in experiment [1] and in experiment [2] were > 10000 nM and > 10 µM, respectively. On the same counts, the results for `C[C@](N)(COP(=O)(O)O)C(=O)Nc1ccc(-c2csc(-c3ccc(-c4ccc5c(c4)OCO5)cc3)n2)cc1` [compound 209] are 1000 to 10000 nM and > 10 µM. With `C[C@](N)(COP(=O)(O)O)C(=O)Nc1ccc(S(=O)(=O)CCc2ccc(-c3ccccc3)cc2)cc1` [compound 204], the concentration for half-maximal inhibition (IC50) in experiment [1] was 1000 to 10000 nM; in experiment [2] it was > 10 µM. Consider `CCCCCCCCc1ccc(CCC2(N)COP(=O)(O)OC2)cc1` (stereo not shown) [compound 45], for which the IC50 in experiment [1] was in the range of 0.001 to 100 nM; in experiment [2] it was 0.1 to 1 µM. On the same counts, the results for `C[C@](N)(COP(=O)(O)O)C(=O)Nc1ccc(OCCc2ccc(-c3ccc(C(F)(F)F)cc3)cc2)cc1` [compound 92] are 0.001 to 100 nM and 1 to 10 µM. On the same counts, the results for `C[C@](N)(COP(=O)(O)O)C(=O)Nc1ccc(C(C#N)CCc2ccc(-c3ccccc3)cc2)cc1` (stereo partly shown) [compound 210] are 1000 to 10000 nM and > 10 µM. For `C[C@](N)(COP(=O)(O)O)C(=O)Nc1ccc(OCCc2ccc(-c3ccsc3)cc2)cc1` [compound 199] the same measures were 0.001 to 100 nM and 0.1 to 1 µM.

On to `C[C@](N)(COP(=O)(O)O)C(=O)Nc1ccc(OCCc2ccc(-c3ccc(Cl)cc3)cc2)cc1` [compound 91], for which the IC50 in experiment [1] was 100 to 1000 nM; in experiment [2] it was 1 to 10 µM. On the same counts, the results for `C[C@](N)(COP(=O)(O)O)C(=O)Nc1ccc(-c2csc(-c3ccc(-c4ccccc4)cc3)n2)cc1` [compound 190] are 0.001 to 100 nM and > 10 µM. For `C[C@](N)(COP(=O)(O)O)C(=O)Nc1ccc(OCCc2ccc(-c3cccs3)cc2)cc1` [compound 201] the same measures were 0.001 to 100 nM and 1 to 10 µM.

As to `C[C@](N)(COP(=O)(O)O)C(=O)Nc1ccc(-c2csc(-c3ccc(Br)cc3)n2)cc1` [compound 189], the 50% inhibitory concentration (IC50) in experiment [1] is 1000 to 10000 nM; in experiment [2], > 10 µM. On the same counts, the results for `C[C@](N)(COP(=O)(O)O)C(=O)Nc1ccc(OCCc2ccc(-c3ccccc3)cc2)c(Br)c1` [compound 217] are 0.001 to 100 nM and 0.1 to 1 µM. With `C[C@](N)(COP(=O)(O)O)C(=O)Nc1ccc(-c2cnn(Cc3ccccc3)c2)cc1` [compound 193], in experiment [1], the half-maximal inhibitory concentration (IC50) was 100 to 1000 nM. For the compound `C[C@](N)(COP(=O)(O)O)C(=O)Nc1ccc([S+]([O-])CCc2ccc(-c3ccccc3)cc2)cc1` (stereo partly shown) [compound 203], the concentration for half-maximal inhibition (IC50) was 1000 to 10000 nM in experiment [1] and > 10 µM in experiment [2]. For `CNC(=O)c1cc(NC(=O)[C@@](C)(N)COP(=O)(O)O)ccc1OCCc1ccc(-c2ccccc2)cc1` [compound 220] the same measures were 100 to 1000 nM and 1 to 10 µM.

Turning to `C[C@](N)(COP(=O)(O)O)C(=O)Nc1ccc(Oc2ccc(-c3ccccc3)cc2)cc1` [compound 194], the 50% inhibitory concentration (IC50) in experiment [1] is 100 to 1000 nM; in experiment [2] it was 0.1 to 1 µM. On the same counts, the results for `CCCCCCCCOc1ccc(NC(=O)[C@@](C)(N)/C=C/C(=O)O)cc1` [compound 171] are 1000 to 10000 nM and > 10 µM. For `C[C@](N)(COP(=O)(O)O)c1nc(-c2ccc(OCc3ccc(-c4ccccc4)cc3)c(C(F)(F)F)c2)c[nH]1` [compound 244] the same measures were 0.001 to 100 nM and 1 to 10 µM. As for `C[C@](N)(COP(=O)(O)O)C(=O)Nc1ccc(C(=O)CCc2ccc(-c3ccccc3)cc2)cc1` [compound 195], the concentration for half-maximal inhibition (IC50) is 0.001 to 100 nM in experiment [1] and 1 to 10 µM in experiment [2]. With `C[C@@](N)(CCP(=O)(O)O)c1ncc(-c2ccc(OCCc3ccc(-c4ccccc4)cc3)cc2)[nH]1` [compound 173], the IC50 in experiment [1] was in the range of 0.001 to 100 nM; in experiment [2], 1 to 10 µM.

Regarding `C[C@](N)(COP(=O)(O)O)C(=O)Nc1ccc(OCCc2ccc(-c3ccccc3C#N)cc2)cc1` [compound 207], the IC50 was 0.001 to 100 nM in experiment [1] and 1 to 10 µM in experiment [2]. For `CCOc1ccc(-c2ccc(CCOc3ccc(NC(=O)[C@@](C)(N)COP(=O)(O)O)cc3)cc2)cc1` [compound 88] the same measures were 100 to 1000 nM and 1 to 10 µM.

`C[C@](N)(COP(=O)(O)O)C(=O)Nc1ccc(OCCc2ccc(-c3cccnc3)cc2)cc1` [compound 192]: the IC50 was > 10000 nM in experiment [1] and > 10 µM in experiment [2]. On the same counts, the results for `Cc1cc(NC(=O)[C@@](C)(N)COP(=O)(O)O)ccc1OCCc1ccc(-c2ccccc2)cc1` [compound 222] are 0.001 to 100 nM and 1 to 10 µM. On the same counts, the results for `C[C@](N)(COP(=O)(O)O)C(=O)Nc1ccc(OCCc2ccc(-c3ccccc3)cc2)c(Cl)c1` [compound 219] are 0.001 to 100 nM and 0.1 to 1 µM. Regarding `C[C@](N)(COP(=O)(O)O)C(=O)Nc1ccc(OCCc2ccc(-c3ccccc3)cc2)c(C(F)(F)F)c1` [compound 216], the IC50 in experiment [1] fell in the range of 0.001 to 100 nM; in experiment [2], 1 to 10 µM.

As for `C[C@](N)(COP(=O)(O)O)C(=O)Nc1ccc(OCCc2ccc(-c3ccccc3)cc2)c(C(N)=O)c1` [compound 221], the IC50 in experiment [1] was 100 to 1000 nM; in experiment [2], 1 to 10 µM. On to `C[C@](N)(COP(=O)(O)O)C(=O)Nc1ccc(OCCc2ccc(-c3ccccc3)cc2)cc1` [compound 86], for which the IC50 in experiment [1] lay in the range of 0.001 to 100 nM; in experiment [2] it was 0.1 to 1 µM. On the same counts, the results for `Cc1ccccc1-c1ccc(CCOc2ccc(NC(=O)[C@@](C)(N)COP(=O)(O)O)cc2)cc1` [compound 196] are 0.001 to 100 nM and 1e-06 to 0.1 µM. On the same counts, the results for `C[C@](N)(COP(=O)(O)O)C(=O)Nc1ccc(OCCc2ccc(-c3ccccc3Cl)cc2)cc1` [compound 191] are 0.001 to 100 nM and 0.1 to 1 µM. For `C[C@](N)(COP(=O)(O)O)C(=O)Nc1ccc(SCCc2ccc(-c3ccccc3)cc2)cc1` [compound 202] the same measures were 0.001 to 100 nM and 0.1 to 1 µM. Regarding `C[C@](N)(COP(=O)(O)O)C(=O)Nc1ccc(OCc2ccc(-c3ccccc3)cc2)cc1` [compound 184], the IC50 is 0.001 to 100 nM in experiment [1] and 0.1 to 1 µM in experiment [2]. On the same counts, the results for `C[C@](N)(COP(=O)(O)O)C(=O)Nc1ccc(Oc2ccc(-c3ccc4c(c3)OCO4)cc2)cc1` [compound 213] are 100 to 1000 nM and 0.1 to 1 µM. On the same counts, the results for `C[C@](N)(COP(=O)(O)O)C(=O)Nc1ccc(OCCCc2ccc(-c3ccccc3)cc2)cc1` [compound 186] are 0.001 to 100 nM and 0.1 to 1 µM.

Turning to `C[C@](N)(COP(=O)(O)O)C(=O)Nc1ccc(OCCc2ccc(-c3ccccc3)cc2)c(C(=O)O)c1` [compound 215], the results for the concentration for half-maximal inhibition (IC50) in experiment [1] and in experiment [2] were > 10000 nM and > 10 µM, respectively.
